Assay results from paper PMC12689914, “Identification of a novel dual-targeting peptide inhibitor of SARS-CoV-2 RBD and NRP1 through structure-based virtual screening” (Frontiers in Pharmacology, 2025).
Non-standard residues stand in square brackets, D forms with d. Residues, ends and D or L forms follow the SMILES beside them.

System: SARS-CoV-2 Omicron XBB.1.5 pseudovirus
Conditions: Omicron XBB.1.5 pseudovirus, 48 h

In the case of `CC(C)C[C@H](NC(=O)[C@H](CCC(=O)O)NC(=O)[C@H](C)NC(=O)[C@@H](N)CCC(=O)O)C(=O)N[C@H](CC(=O)O)C(=O)N[C@H](C(=O)N[C@@H](CO)C(=O)N[C@@H](CC(=O)O)C(=O)N[C@@H](C)C(=O)N[C@@H](Cc1ccccc1)C(=O)N[C@@H](Cc1ccc(O)cc1)C(=O)N[C@@H](CCCNC(=N)N)C(=O)N[C@@H](Cc1ccccc1)C(=O)N[C@@H](Cc1ccccc1)C(=O)N[C@@H](CCCNC(=N)N)C(=O)N[C@@H](CCCNC(=N)N)C(=O)N[C@@H](C)C(=O)N[C@@H](CCCNC(=N)N)C(=O)O)C(C)C` [Peptide-1] (H-EAEL[dD]VSDAFYRFFRRAR-OH; N-terminus and C-terminus assumed), the EC50 is reported as 620 ± 30 nM.
